Measurements reported in PubChem BioAssay (NCI).
Where “and” joins values, the source holds several entries; their conditions need not be identical. Equal values may be shown once.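 48-hour exposure; five concentrations; linearly interpolated endpoints. Here, GI50 denotes the concentration required for 50% inhibition of growth. TGI: total growth inhibition.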

How the values were obtained:
Assay in all cases: NCI tumour cell line growth inhibition, 48 h
DMS 114 small cell lung = tested on: DMS 114 small cell lung
DMS 273 small cell lung = tested on: DMS 273 small cell lung
HOP-18 NSCLC = tested on: HOP-18 NSCLC
KM20L2 colon = tested on: KM20L2 colon
LXFL 529 NSCLC = tested on: LXFL 529 NSCLC
SNB-78 CNS = tested on: SNB-78 CNS
MDA-N = tested on: MDA-N
P388/ADR leukemia = tested on: P388/ADR leukemia
RXF-631 renal = tested on: RXF-631 renal
SN12K1 renal = tested on: SN12K1 renal
XF 498 CNS = tested on: XF 498 CNS

| SMILES | TGI (DMS 114 small cell lung) | TGI (DMS 273 small cell lung) | TGI (HOP-18 NSCLC) | TGI (KM20L2 colon) | TGI (LXFL 529 NSCLC) | TGI (SNB-78 CNS) [µM] | TGI (MDA-N) | also measured |
| --- | --- | --- | --- | --- | --- | --- | --- | --- |
| COc1cc(CCc2ccc(OC(C)=O)cc2)cc(OC)c1OC | > 100 µM | > 100 µM | > 100 µM | > 100 µM | > 100 µM | > 100 |  |  |
| O=c1cccccc1[O-].O=c1cccccc1[O-].O=c1cccccc1[O-].[Sm+3] |  | > 100 µM |  | > 100 µM |  | > 100 |  | GI50 (DMS 273 small cell lung): 11.3 µM; GI50 (KM20L2 colon): 15.4 µM; GI50 (SNB-78 CNS): 30.6 µM |
| O=C(CC1=Nc2nnc(-c3nnc4n3C(=O)C(CC(=O)C3CC3)=N4)n2C1=O)C1CC1 | > 100 µM | > 100 µM |  | > 100 µM | > 100 µM | > 100 |  |  |
| Cc1ccc(S(=O)(=O)N2CCC(C(=O)O)(c3ccccc3)CC2)cc1 |  |  |  |  |  |  | > 100 µM |  |
| CC1CC(C)C(C(O)CC2CC(=O)N(c3ccccc3)C(=O)C2)C(O)C1 (centres undefined) | > 100 µM | > 100 µM | > 100 µM | > 100 µM | > 100 µM | > 100 |  |  |
| O=NN(CCCl)C(=O)NC1CCCCC1 | 38.8 µM and 112 µM and 183 µM | 65.1 µM and 124 µM and 170 µM | 56.2 µM and 152 µM | 96.9 µM and 144 µM and 350 µM | 32.8 µM and 111 µM and 76.6 µM |  | 134 µM | GI50 (DMS 114 small cell lung): 20.7 µM and 70.3 µM; GI50 (DMS 273 small cell lung): 28.2 µM and 76.7 µM; GI50 (HOP-18 NSCLC): 84.4 µM; GI50 (KM20L2 colon): 34.3 µM and 163 µM; GI50 (LXFL 529 NSCLC): 17.3 µM; TGI (P388/ADR leukemia): 47.4 µM; GI50 (RXF-631 renal): 25 µM; TGI (RXF-631 renal): 132 µM; TGI (SN12K1 renal): 101 µM; GI50 (XF 498 CNS): 18 µM and 82 µM; TGI (XF 498 CNS): 36.4 µM and 128 µM and 114 µM |
| Cc1nc2c(Br)cc(Br)cc2c(=O)n1-c1ccccc1NC1OCC(O)C(O)C1O (centres undefined) |  |  |  |  |  |  | > 100 µM |  |
| CC(=O)OCC1OC(n2c(=S)n(-c3ccccc3)c(=O)c3cc(Br)cc(Br)c32)C(OC(C)=O)C(OC(C)=O)C1OC(C)=O (centres undefined) | > 100 µM | > 100 µM |  | > 100 µM | > 100 µM | > 100 |  | GI50 (XF 498 CNS): 17.2 µM and 49.1 µM; TGI (XF 498 CNS): 69.7 µM and > 100 µM |
| CCOc1ccccc1NC(=O)C1=C(C)NC(C)=C(C(=O)Nc2ccccc2OCC)C1c1ccc([N+](=O)[O-])cc1 | > 100 µM | > 100 µM | > 100 µM | > 100 µM | > 100 µM | > 100 |  | TGI (RXF-631 renal): > 100 µM |
| Cc1ccc(C2=C(Cl)C(=O)C(c3ccc(C)cc3)=C(Cl)C2=O)cc1 |  |  |  |  |  |  | > 100 µM |  |
| O=C(O)Cn1ccc(=O)c2cc([N+](=O)[O-])ccc21 |  |  |  |  |  |  | > 100 µM |  |
| O=C(/C=C(\[O-])c1ccccc1)CCCCCCC(=O)/C=C(\[O-])c1ccccc1.O=C(/C=C(\[O-])c1ccccc1)CCCCCCC(=O)/C=C(\[O-])c1ccccc1.O=C(/C=C(\[O-])c1ccccc1)CCCCCCC(=O)/C=C(\[O-])c1ccccc1.[Nd+3].[Nd+3] |  |  |  | > 50 µM |  |  |  | GI50 (KM20L2 colon): > 50 µM |
| O=C(Oc1ccc2c(c1)CN(Cc1ccccc1)CO2)c1ccccc1 |  |  |  |  |  |  | 30.7 µM |  |
| CCCCC[C@@H](C/C=C/CCC(=O)NC/C(=C/Cl)[C@H]1C(=O)C(C)(C)C(=O)[C@@H](C)[C@@]1(C)O)OC |  |  |  |  |  |  | 36.1 µM | GI50 (MDA-N): 18.4 µM |
| C=C(Cl)[C@@](Cl)(CBr)CC[C@@H](Br)C(C)(C)Cl |  |  |  |  |  |  |  | GI50 (MDA-N): 1.69 µM |
| COc1cc(N(CCC#N)CCC#N)ccc1/C(N=Nc1ccc(C(=O)O)cc1)=N/NC(=O)c1cc(Br)ccc1O |  |  |  |  |  |  | > 150 µg/mL | GI50 (MDA-N): 108 µg/mL |
| Nc1nc(=S)[nH]c(C(=O)Nc2nccs2)c1-c1ccccc1 | > 100 µM | > 100 µM | > 100 µM | > 100 µM | > 100 µM | > 100 |  | TGI (XF 498 CNS): > 100 µM |
| CC1OC(OC2C(O[C@H]3CC[C@@]4(C)C(=CC[C@H]5[C@@H]6C[C@@H]7O[C@]8(CC[C@@H](C)CO8)[C@@H](C)[C@@H]7[C@@]6(C)CC[C@@H]54)C3)OC(CO)C(OC3OC(CO)C(O)C3O)C2O)C(O)C(O)C1O (some centres undefined) |  |  |  |  |  |  | 1.46 µM and 2.34 µM | GI50 (MDA-N): 1.13 µM |
| CN(C)c1ccc(C2CC(C)(O)Oc3cc4c(cc32)OCO4)cc1 (centres undefined) |  |  |  |  |  |  | > 100 µM |  |
| COCC1N=C(c2cc(OC)c(OC)c(OC)c2-c2cc3c(cc2[C@H](C)O)OCO3)O[C@H]1c1ccccc1 (some centres undefined) |  | > 100 µM | > 100 µM | > 100 µM | > 100 µM | > 100 |  | TGI (RXF-631 renal): > 100 µM |
| Nc1ncnc2c1nc(Cl)n2C1OC(CO)C(O)C1O (centres undefined) |  |  |  |  |  |  | > 100 µM |  |
| COc1ccc(C(=O)O/N=C2/CCCCC2CN(C)C)cc1 (centres undefined) |  | > 100 µM | > 100 µM | > 100 µM | > 100 µM | > 100 |  | TGI (RXF-631 renal): > 100 µM |
